Data reported in patent US9017673B2, “Peptide analogues comprising at least one type of aminoacylaza-$g(b)3and the use thereof, in particular for therapy” (Centre National de la Recherche Scientifique, priority 2003, dated 2015).
“Also recorded” adds a separate entry of the source. Square brackets hold non-standard residues; d marks the D form. NαhTyr = N-alpha-homo tyrosine (backbone-modified residue); NαhAla = N-alpha-homo alanine (backbone-modified residue); NαhLeu = N-alpha-homo leucine (backbone-modified residue); NαhLys = N-alpha-homo lysine (backbone-modified residue)

Experiments:
[1] = test system: T lymphocytes of BALB/c mice injected with the modified peptide 88-99 of the histone H4; test: Mirror test: T lymphocytes of mice injected with the modified 88-99 H4 peptides, stimulated ex vivo with the analogue and the parent peptide 88-99; type: in vivo; details: for immunogenicity (induces responses against the homologous peptide): mice injected with the analogue subcutaneously with Freund's adjuvant; for cross reaction of the generated T cells with the parent peptide 88-99: mice injected with the analogue, ex vivo stimulation with parent peptide 88-99
Description: In addition, a mirror manipulation of the foregoing was performed, namely response tests on the T lymphocytes of mice injected with the modified peptides and stimulation ex vivo with the parent peptide (88-99). After injection of the analogues, analyses were performed on cell cultures with the said analogues and the parent peptide 88-99. The following results are observed:
In addition, a mirror experiment of the foregoing was performed, namely an experiment on mice injected with the peptide G and stimulation ex vivo with increasing quantities of the parent peptide (88-99).
FIG. 2: Response tests on the T lymphocytes of BALB/c mice injected with the modified peptide 88-99 A or with the modified peptide 88-99 D of the histone H4 subcutaneously with Freund's adjuvant. The stimulation index is shown on the y-axis and the different concentrations of peptide are shown on the x-axis.
FIG. 3: Response tests on the T lymphocytes of BALB/c mice injected with the modified peptide 88-99 E of the histone H4 subcutaneously with Freund's adjuvant. The stimulation index is shown on the y-axis and the different concentrations of peptide are shown on the x-axis.
FIG. 5: Response tests on the T lymphocytes of BALB/c mice injected with the modified peptide 88-99 G of the histone H4 subcutaneously with Freund's adjuvant. The stimulation index is shown on the y-axis and the different concentrations of peptide are shown on the x-axis.

[2] = test system: T lymphocytes of BALB/c mice immunized with the parent peptide 88-99H4; test: T lymphocyte proliferation (tritiated thymidine) of mice immunized with parent peptide 88-99H4, restimulated in culture with parent peptide or analogues; type: cell-based; details: mice immunized with parent 88-99H4; for index of stimulation (IS) relative to the wells without peptide: restimulation peptide 90 μM (printed "to 90 μM"), FIG. 1; for index of stimulation (IS): restimulation peptide 100 μM (printed "to 100 μM"), FIG. 4; for activity compared with that of the parent peptide 88-99: T cell restimulation
Description: BALB/c mice were immunized with the parent peptide 88-99H4 and in cell cultures the T lymphocytes of these mice were restimulated with the same peptide or with the analogues A-E. The cell proliferation was measured by the incorporation of tritiated thymidine and the index of stimulation (1S) relative to the wells without peptide was calculated. The tests are performed in triplicate and the experiment is performed several times in independent experiments.
The same experiments were performed with peptide G, (corresponding to the sequence SEQ ID NO: 7).
(§1) FIG. 1: Response tests on the T lymphocytes of BALB/c mice injected with the parent peptide 88-99 of the histone H4 subcutaneously with Freund's adjuvant, and stimulation ex-vivo with the parent peptide or the analogue E; the stimulation index is shown on the y-axis and the different concentrations of peptide are shown on the x-axis.
as §1, with “4:” for “1:”, “G;” for “E;”

Substance	immunogenicity (induces responses against the homologous peptide) [1]	cross reaction of the generated T cells with the parent peptide 88-99 [1]	index of stimulation (IS) relative to the wells without peptide [2]	index of stimulation (IS) [2]	activity compared with that of the parent peptide 88-99 [2]
^88H2N-Tyr-Nα-hAla-Leu-Lys-Arg-Gln-Gly-Arg-Thr-Leu-Tyr-Gly-OH^99 (H-Y[NαhAla]LKRQGRTLYG-OH; also: Nα-homo amino acid residue) [peptide A]	immunogenic	no cross reaction with the parent peptide	–	–	–
H-Tyr-Ala-Leu-Lys-Arg-Gln-Gly-Arg-Thr-Leu-Tyr-Gly-OH (H-YALKRQGRTLYG-OH; listed as Homo sapiens) [parent peptide 88-99H4, reference compound]	–	–	6.7	16.9	–
^88H2N-Tyr-Ala-Leu-Nα-hLys-Arg-Gln-Gly-Arg-Thr-Leu-Tyr-Gly-OH^99 (H-YAL[NαhLys]RQGRTLYG-OH; also: Nα-homo amino acid residue) [peptide D]	immunogenic	no cross reaction with the parent peptide	–	–	–
^88H2N-Tyr-Ala-Leu-Lys-Arg-Gln-Gly-Arg-Thr-Nα-hLeu-Nα-hTyr-Gly-OH^99 (H-YALKRQGRT[NαhLeu][NαhTyr]G-OH; also: Nα-homo leucine and tyrosine residues) [peptide G]	immunogenic	react by cross reaction with the homologous peptide G and in particular with the parent peptide with the same intensity	–	16.6	analogous
^88H2N-Tyr-Ala-Leu-Lys-Arg-Gln-Gly-Arg-Thr-Nα-hLeu-Tyr-Gly-OH^99 (H-YALKRQGRT[NαhLeu]YG-OH; also: Nα-homo leucine residue) [peptide E]	immunogenic	react by cross reaction with the parent peptide; also recorded: cross reacts perfectly	7.7	–	analogous, or even superior depending on the experiments
